Experimental data taken from US20230111310A1, “CARBOXYLIC ACID DERIVATIVE-SUBSTITUTED IMINO ARYL COMPOUND, PREPARATION METHOD THEREFOR, HERBICIDAL COMPOSITION AND USE THEREOF” (Qingdao Kingagroot Chemical Compound Co., Ltd., priority 2020, published 2023).

Tests used:
Test in all cases: Weeding effect in post-emergence stage
Type in all cases: in vivo
Conditions in all cases: fresh weight control rate level
[1] = tested on: Abutilon theophrasti
Procedure, shortened: (§1)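 Weeds were treated post-emergence at 2-3 leaves with compound doses from 7.5 up to 500 g/ha, formulated in acetone–Tween 80 with methyl oleate synergist. Efficacy was assessed as growth control after 3 weeks.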

[2] = tested on: Eleusine indica
Procedure, shortened: as §1

[3] = tested on: Setaria viridis
Procedure, shortened: as §1

[4] = tested on: Alopecurus japonicus
Procedure, shortened: as §1

[5] = tested on: Digitaria sanguinalis
Procedure, shortened: as §1

[6] = tested on: Echinochloa crusgalli
Procedure, shortened: as §1

Structure (SMILES) | Weeding effect in post-emergence stage, Abutilon theophrasti (level) ([1]; Dose 15 g/ha) | Weeding effect in post-emergence stage, Eleusine indica (level) ([2]; Dose 15 g/ha) | Weeding effect in post-emergence stage, Setaria viridis (level) ([3]; Dose 15 g/ha) | Weeding effect in post-emergence stage, Alopecurus japonicus (level) ([4]; Dose 15 g/ha) | Weeding effect in post-emergence stage, Digitaria sanguinalis (level) ([5]; Dose 15 g/ha) | Weeding effect in post-emergence stage, Echinochloa crusgalli (level) ([6]; Dose 15 g/ha) | Weeding effect in post-emergence stage, Abutilon theophrasti (level) ([1]; Dose 60 g/ha) | Weeding effect in post-emergence stage, Eleusine indica (level) ([2]; Dose 60 g/ha) | Weeding effect in post-emergence stage, Setaria viridis (level) ([3]; Dose 60 g/ha) | Weeding effect in post-emergence stage, Alopecurus japonicus (level) ([4]; Dose 60 g/ha) | Weeding effect in post-emergence stage, Digitaria sanguinalis (level) ([5]; Dose 60 g/ha) | Weeding effect in post-emergence stage, Echinochloa crusgalli (level) ([6]; Dose 60 g/ha)
CCOC(=O)CO/N=C/c1cc(-n2c(=O)cc(C(F)(F)F)[nH]c2=O)ccc1Cl [Control compound B, reference compound] | 3 (Level 3: growth control rate is greater than or equal to 40% and less than 60%) | 1 (Level 1: growth control rate is greater than or equal to 5% and less than 20%) | 2 (Level 2: growth control rate is greater than or equal to 20% and less than 40%) | 1 (Level 1: growth control rate is greater than or equal to 5% and less than 20%) | 2 (Level 2: growth control rate is greater than or equal to 20% and less than 40%) | 2 (Level 2: growth control rate is greater than or equal to 20% and less than 40%) |  |  |  |  |  | 
CO/N=C/c1cc(-n2c(=O)cc(C(F)(F)F)n(N)c2=O)c(F)cc1Cl [Control compound C, reference compound] | 2 (Level 2: growth control rate is greater than or equal to 20% and less than 40%) | 1 (Level 1: growth control rate is greater than or equal to 5% and less than 20%) | 2 (Level 2: growth control rate is greater than or equal to 20% and less than 40%) | 1 (Level 1: growth control rate is greater than or equal to 5% and less than 20%) | 2 (Level 2: growth control rate is greater than or equal to 20% and less than 40%) | 2 (Level 2: growth control rate is greater than or equal to 20% and less than 40%) |  |  |  |  |  | 
CCOC(=O)CO/N=C/c1cccc(-n2c(=O)cc(C(F)(F)F)[nH]c2=O)c1 [Control compound F, reference compound] |  |  |  |  |  |  | 2 (Level 2: growth control rate is greater than or equal to 20% and less than 40%) | 1 (Level 1: growth control rate is greater than or equal to 5% and less than 20%) | 1 (Level 1: growth control rate is greater than or equal to 5% and less than 20%) | 0 (Level 0: growth control rate is less than 5%) | 1 (Level 1: growth control rate is greater than or equal to 5% and less than 20%) | 0 (Level 0: growth control rate is less than 5%)
